In data set [1] the test system is HuTu 80 cells. The experiment in a line: ROS production, CellROX Deep Red flow cytometry. The data set is classed as cell-based, human. The procedure: ROS generation was investigated using a flow cytometry assay and the CellROX® Deep Red flow cytometry kit. For this, HuTu 80 cells were harvested at 2000 rpm for 5 min and then washed twice with ice-cold PBS, followed by resuspension in 0.1 mL of medium without FBS, to which was added 0.2 μL of CellROX® Deep Red and incubated at 37 °C for 30 min. After three times washing the cells and suspending them in PBS, the production of ROS in the cells was immediately monitored using a flow cytometer (Guava easyCyte, Merck, Rahway, NJ, USA).

In data set [2] the test system is HuTu 80. The experiment in a line: MTT cell viability test, HuTu 80. Type of data set: cell-based, human. The note with it: for IC50: Homo sapiens, HuTu80, incubation time 24 h; for selectivity (SI) for HuTu 80: IC50 normal cells (WI38) / IC50 HuTu 80. How it is done:
(§1) Human cell cultures of tumor origin—HeLa (cervical tumor), HuTu 80 (human duodenal adenocarcinoma), ChangLiver (human liver HeLa-like line), and normal cell line WI38, VA 13 subline 2RA is a diploid human cell strain composed of fibroblasts derived from healthy lung tissue provided by The Gamaleya National Center for Epidemiology and Microbiology, as well as the Institute of Cytology of the Russian Academy of Sciences. They were grown in a nutrient medium DMEM (PanEco, Moscow, Russia) and MEM (PanEco, Moscow, Russia), containing fetal bovine serum (10% by volume) (ThermoFisher Scientific, Paisley, UK), Glutamax (2 mM) (Gibco, Scotland, UK), and penicillin-streptomycin (1% by volume) (PanEco, Moscow, Russia). The cultivation was carried out at 37 °C in a humidified CO2 atmosphere (5%).
(§2) Cell viability was determined by the MTT test. Cells were seeded in a 96-well plate in the amount of 1 × 10^4 cells/200 µL of complete nutrient medium and cultured at 37 °C in CO2 (5%). After 24 h of incubation, various concentrations of test compounds in the range of 0.1 to 100 μM were added to the cell cultures, and then the cells were cultured under the same conditions for 24 and 72 h. For each concentration, the experiment was carried out in triplicate.
(§3) All compounds were dissolved in DMSO and then diluted with the medium to the required concentration. […] The DMSO was also added to the control wells in a volume of 1%. After the incubation time, MTT (3-(4,5-dimethylthiazol-2-yl)-2,5-diphenyltetrazolium bromide, 5 mg/mL) was added to each well, and plates were additionally incubated for 2 h (until the characteristic color appeared).
(§4) Using a plate analyzer (Cytation3, BioTech Instruments Inc., Winooski, VT, USA), the optical density was determined at 530 nm.
(§5) The IC50 parameter was calculated using the AAT Bioquest program.
(§6) The selectivity index (SI) is calculated as the ratio between the IC50 for normal cells and the IC50 for cancer cells.

The test system of data set [3] is WI38. The data set is described as follows: MTT cell viability test, WI38. The data set is classed as cell-based, human. The note with it: for IC50: Homo sapiens, WI-38, incubation time 24 h. How it is done: as §1, §2, §3, §4, §5
The subject of data set [4] is platelet aggregation. The experiment in a line: Platelet aggregation, Born method. Type of data set: cell-based, human. The note with it: for reduction of the maximum platelet aggregation, on average: text summary for 3a and 3b. The procedure: The in vitro experiments were performed using the blood of healthy male donors aged 18-24 years (a total of 54 donors). This study was approved by the Ethics Committee of the Federal State Budgetary Educational Institution of Higher Education at the Bashkir State Medical University of the Ministry of Health of the Russian Federation (No. 2, dated 17 October 2012). Informed consent was obtained from all participants before blood sampling. The blood was collected from the cubital vein using the vacuum blood collection system BD Vacutainer® (Becton, Dickinson, and Company, Franklin Lakes, NJ, USA). […] The study of the effect on platelet aggregation was performed using the Born method using the aggregometer «[…], Moscow, Russia). The assessment of the antiplatelet activity of the studied compounds and reference preparations was started with a final concentration of 2 × 10^-3 mol/L. Adenosine diphosphate (ADP; 20 μg/mL) and collagen (5 mg/mL) manufactured by […] Company, Barnaul, Russia, were used as inducers of aggregation. The study on the anticoagulant activity was performed by standard recognized clotting tests using the optical two-channel automatic analyzer of blood coagulation, Solar […] SOLAR, Minsk, Belarus). The following parameters were studied: activated partial thromboplastin time (APTT), prothrombin time (PT), and fibrinogen concentrations according to the Clauss method. The determination of the anticoagulant activity of the studied compounds and reference preparation was performed at a concentration of 5 × 10^-4 g/mL using the reagents manufactured by […] Company (Barnaul, Russia). The results of the study were processed using the statistical package Statistica 10.0 (StatSoft Inc., Tulsa, OK, USA). The Shapiro-Wilk's test was used to check the normality of the [NT] distribution. The form of distribution of the data obtained differed from the normal one; therefore, non-parametric methods were used for further analysis. The data were presented as medians and 25 and 75 percentiles. An analysis of variance was conducted using the Kruskal-Wallis test.

Data set [5] has as its system Chang Liver. The data set is described as follows: MTT cell viability test, Chang liver. The data set is classed as cell-based. The note with it: Homo sapiens, incubation time 24 h. How it is done:
as §1, §2, §3, §4, §5

The subject of data set [6] is M-HeLa. The experiment in a line: MTT cell viability test, M-HeLa. Type of data set: cell-based, human. The note with it: for IC50: Homo sapiens, M-HeLa, incubation time 24 h; for selectivity (SI) for M-HeLa: IC50 normal cells (WI38) / IC50 M-HeLa. The procedure:
as §1, §2, §3, §4, §5, §6

Data set [7] relates to HuTu 80 cells. The data set is described as follows: Apoptosis induction, annexin V/propidium iodide flow cytometry. Type of data set: cell-based, human. The note with it: 24 h; IC50 concentration of 40 μM. The procedure: HuTu 80 cells at 1 × 10^6 cells/well in a final volume of 2 mL were seeded into six-well plates. After 24 h of incubation, various concentrations of tested compounds were added to the wells. The cells were harvested at 2757 g for 5 min and then washed twice with ice-cold PBS, followed by resuspension in binding buffer. Next, the samples were incubated with 5 μL of annexin V-Alexa Fluor 647 (Sigma-Aldrich, Burlington, MA, USA) and 5 μL of propidium iodide for 15 min at room temperature in the dark. Finally, the cells were analyzed by flow cytometry (Guava easyCyte, Merck, Rahway, NJ, USA) within 1 h. The experiments were repeated three times.

Data set [8] deals with HuTu 80 cells. The data set is described as follows: Mitochondrial membrane potential, JC-10 flow cytometry. The data set is classed as cell-based, human. The note with it: 24 h; concentrations corresponding to IC50. How it is done:
To analyze the effect of compounds on changes in the mitochondrial membrane potential, we performed flow cytometry using JC-10 fluorescent dye (in the Mitochondria Membrane Potential Kit). In normal cells (with high membrane potential), JC-10 accumulates in the mitochondrial matrix, where it forms aggregates with red fluorescence. However, in apoptotic cells, JC-10 diffuses out of mitochondria, converts to its monomeric form, and emits green fluorescence, which is recorded by a flow cytometer. Cells were harvested at 2757 g for 5 min and then washed twice with ice-cold PBS, followed by resuspension in JC-10 (10 µg/mL) and incubation at 37 °C for 10 min. Then, the cells were rinsed three times and suspended in PBS, and the JC-10 fluorescence was observed by flow cytometry (Guava easyCyte, Merck, Rahway, NJ, USA).

`O=C1C(=O)N(Cc2ccccc2F)c2ccc(F)cc21` [Compound 3a, 5-Fluoro-1-(2-fluorobenzyl)indoline-2,3-dione]: the figures for the “increase in ROS production relative to the control” value in data set [1] (12.5 µM) and in data set [1] (25 µM) were 1.1 fold and 7.1 times, respectively. Also, the IC50 in [2] was found to be 25.2 ± 1.9 µM; in [3] it was 62 ± 2 µM; in data set [5], 53 ± 4.2 µM; in data set [6], 74.6 ± 5.9 µM. Moreover, the “selectivity (SI) for HuTu 80” value in data set [2] is listed as 2.5. The “cytotoxicity against the healthy cell line WI38” value in [3] is listed as “low cytotoxicity”. Besides, the “lengthening of the lag-period relative to the control” value in data set [4] was “more than 10%”. Also, the “reduction of the maximum platelet aggregation, on average” value in data set [4] is listed as roughly 12%.

For `O=C1C(=O)N(Cc2ccccc2Cl)c2ccc(F)cc21` [Compound 3b, 1-(2-Chlorobenzyl)-5-fluoroindoline-2,3-dione], the “apoptosis-inducing activity” value in data set [7] was “highest apoptosis-inducing activity”. Also, in data set [8], the “green fluorescence increased relative to the control” value was “up to 55%”. Besides, in data set [1], the “ROS production relative to the control” value is on record as “increased ROS production”. In addition, in data set [2], inhibition was half-maximal at 38.3 ± 3 µM (IC50) and the “selectivity (SI) for HuTu 80” value came to 1.5. Besides, in data set [3], the “cytotoxicity against the healthy cell line WI38” value is “low cytotoxicity” and the IC50 is 58.1 ± 6.6 µM. Moreover, in [4], the “lengthening of the lag-period relative to the control” value is listed as “more than 10%” and the “reduction of the maximum platelet aggregation, on average” value is roughly 12%. The molecule also yielded an IC50 in data set [5] of 71.5 ± 5.6 µM. Also, in [6], the IC50 was determined as 32.1 ± 2.5 µM and the “selectivity (SI) for M-HeLa” value is 1.8. In [6] (cell line not given), the “cytotoxicity, times higher than the reference drug 5-FU” value is given as 2.0 times.

As to `O=C1C(=O)N(Cc2c(F)cccc2Cl)c2ccc(F)cc21` [Compound 3d, 1-(2-Chloro-6-fluorobenzyl)-5-fluoroindoline-2,3-dione], the “green fluorescence increased relative to the control” value in data set [8] is listed as “up to 55%”. In data set [1], the “ROS production relative to the control” value is “increased ROS production”. For the same molecule, in data set [2], the IC50 worked out at 31 ± 2.4 µM and the “selectivity (SI) for HuTu 80” value came to 2.5. Besides, in data set [3], the “cytotoxicity against the healthy cell line WI38” value is on record as “low cytotoxicity” and inhibition was half-maximal at 78.3 ± 8 µM (IC50). In [5], this molecule gave a half-maximal inhibitory concentration (IC50) greater than 100 µM. Besides, in data set [6], the half-inhibitory concentration (IC50) worked out at 53.8 ± 4.3 µM and the “selectivity (SI) for M-HeLa” value is recorded as 1.5.

Take `Cc1cc(C)cc(CN2C(=O)C(=O)c3cc(F)ccc32)c1` [Compound 4b, 1-(3,5-Dimethylbenzyl)-5-fluoroindoline-2,3-dione]: the melting point lay within 97 to 98 °C. In [2], inhibition was half-maximal at 50 ± 3.8 µM (IC50). This molecule registered an IC50 in [5] of 63.2 ± 5.5 µM. Also, in data set [6], half-maximal inhibition (IC50) required 58.8 ± 4.4 µM.

`CC(C)(C)c1ccc(CN2C(=O)C(=O)c3cc(F)ccc32)cc1` [Compound 4c, 1-(4-(tert-Butyl)benzyl)-5-fluoroindoline-2,3-dione] displayed a melting point of 123 to 124 °C. Also, 43 ± 3 µM corresponded to half-maximal inhibition in [2] (IC50). The same molecule displayed a 50% inhibitory concentration (IC50) in data set [5] of 92.1 ± 7.4 µM. In addition, the IC50 in data set [6] is greater than 100 µM.

On to `CC(C)(C)c1cc(CN2C(=O)C(=O)c3cc(F)ccc32)cc(C(C)(C)C)c1` [Compound 4d, 1-(3,5-Di-tert-butylbenzyl)-5-fluoroindoline-2,3-dione], for which the melting point fell in the range of 136 to 137 °C. For the same molecule, half-maximal inhibition in [2] (IC50) was put at 33.3 ± 2.3 µM. This molecule also returned an IC50 in [5] of 39.4 ± 2.8 µM. In addition, in data set [6], the IC50 was 58.4 ± 4.1 µM.

`Cc1ccc2c(c1)C(=O)C(=O)N2Cc1cccc(C(F)(F)F)c1` [Compound 4e, 5-Methyl-1-(3-(trifluoromethyl)benzyl)indoline-2,3-dione]: the melting point was 155 to 156 °C. Inhibition in [2] was half-maximal at 53.2 ± 3.9 µM (IC50). This molecule also came in with an IC50 in data set [5] greater than 100 µM. Also, the IC50 in [6] was determined as 94 ± 7.5 µM.

As to `O=c1[nH]cc(F)c(=O)[nH]1` [Compound 5-FU, 5-fluorouracil, reference compound], the “selectivity (SI) for HuTu 80” value in data set [2] is listed as no more than 1. In addition, the IC50 in data set [3] came out at 62 ± 4.2 µM; in [5], 19 ± 1.7 µM; in [6] it was 62 ± 4.9 µM. In addition, the “selectivity (SI) for M-HeLa” value in data set [6] is given as no more than 1.

The values above are taken from PMC10607100, “Anticancer and Antiphytopathogenic Activity of Fluorinated Isatins and Their Water-Soluble Hydrazone Derivatives” (International Journal of Molecular Sciences, 2023).
